For orientation: Emax means the maximal effect, on the per cent scale that the assay sets. By EC50 is commonly meant the concentration needed to bring the measured effect to its halfway point.

In one assay the target is GABA-A receptor; alpha-1/beta-2/gamma-2 (Homo sapiens) (UniProt P14867+P47870+P18507). Kind of assay: Positive allosteric modulation of synaptic alpha1beta2gamma2 GABA-A receptor (unknown origin) transfected in LTK cells assessed as potentiation of GABA-induced peak current amplitude by measuring maximal efficacy at 0.01 to 10 uM at -80 mV holding potential preincubated for 30 secs followed by GABA stimulation for 2 secs by Q-patch assay relative to control. In kind it is cell-based. The note with it: filed as positive allosteric modulator, dose 0.01-10 µM, time 32.0 sec.
On to `C[C@@]1(O)CC[C@H]2[C@H](CC[C@@H]3[C@@H]2CC[C@]2(C)[C@@H](C(=O)Cn4cnn(-c5ccc(F)cc5)c4=O)CC[C@@H]32)C1`, for which the Emax was 390%.
As for `C[C@@]1(O)CC[C@H]2[C@H](CC[C@@H]3[C@@H]2CC[C@]2(C)[C@@H](C(=O)Cn4cnn(-c5ccc(F)cc5F)c4=O)CC[C@@H]32)C1`, the Emax was 692%.
Consider `C[C@@]1(O)CC[C@H]2[C@H](CC[C@@H]3[C@@H]2CC[C@]2(C)[C@@H](C(=O)Cn4cnn(C5CCCCC5)c4=O)CC[C@@H]32)C1`, for which the Emax is 873%.
Same read-out and setting: then `C[C@@]1(O)CC[C@H]2[C@H](CC[C@@H]3[C@@H]2CC[C@]2(C)[C@@H](C(=O)Cn4cnn(-c5cccc(F)n5)c4=O)CC[C@@H]32)C1`, with 724%; and `C[C@@]1(O)CC[C@H]2[C@H](CC[C@@H]3[C@@H]2CC[C@]2(C)[C@@H](C(=O)Cn4cnn(C5CCCC5)c4=O)CC[C@@H]32)C1`, with 691%; and `C[C@@]1(O)CC[C@H]2[C@H](CC[C@@H]3[C@@H]2CC[C@]2(C)[C@@H](C(=O)Cn4cnn(-c5cc(F)cc(F)c5)c4=O)CC[C@@H]32)C1`, with 1040%.
`CC(C)(C)n1ncn(CC(=O)[C@H]2CC[C@H]3[C@@H]4CC[C@@H]5C[C@](C)(O)CC[C@@H]5[C@H]4CC[C@]23C)c1=O`: the Emax turned out to be 806%.
Regarding `C[C@@]1(O)CC[C@H]2[C@H](CC[C@@H]3[C@@H]2CC[C@]2(C)[C@@H](C(=O)Cn4cnn(-c5cc(F)ccn5)c4=O)CC[C@@H]32)C1`, the Emax was 446%.
With `Cn1ncn(CC(=O)[C@H]2CC[C@H]3[C@@H]4CC[C@@H]5C[C@](C)(O)CC[C@@H]5[C@H]4CC[C@]23C)c1=O`, the maximum response (Emax) worked out at 242%.
On the same count and under the same terms, then `C[C@@]1(O)CC[C@H]2[C@H](CC[C@@H]3[C@@H]2CC[C@]2(C)[C@@H](C(=O)Cn4cnn(-c5cccc(F)c5F)c4=O)CC[C@@H]32)C1`, with 445%.

The target of a further assay is Gamma-aminobutyric acid receptor subunit alpha-4/beta3/delta (Homo sapiens, UniProt O14764+P28472+P48169). Put plainly: Positive allosteric modulation of extrasynaptic alpha4beta3delta GABA-A receptor (unknown origin) transfected in CHO cells assessed as potentiation of GABA-induced peak current amplitude at -80 mV holding potential preincubated for 30 secs followed by GABA stimulation for 2 secs by manual patch assay. It counts as cell-based.
Gamma-aminobutyric acid receptor subunit alpha-4/beta3/delta, sequence (P28472 whole entry): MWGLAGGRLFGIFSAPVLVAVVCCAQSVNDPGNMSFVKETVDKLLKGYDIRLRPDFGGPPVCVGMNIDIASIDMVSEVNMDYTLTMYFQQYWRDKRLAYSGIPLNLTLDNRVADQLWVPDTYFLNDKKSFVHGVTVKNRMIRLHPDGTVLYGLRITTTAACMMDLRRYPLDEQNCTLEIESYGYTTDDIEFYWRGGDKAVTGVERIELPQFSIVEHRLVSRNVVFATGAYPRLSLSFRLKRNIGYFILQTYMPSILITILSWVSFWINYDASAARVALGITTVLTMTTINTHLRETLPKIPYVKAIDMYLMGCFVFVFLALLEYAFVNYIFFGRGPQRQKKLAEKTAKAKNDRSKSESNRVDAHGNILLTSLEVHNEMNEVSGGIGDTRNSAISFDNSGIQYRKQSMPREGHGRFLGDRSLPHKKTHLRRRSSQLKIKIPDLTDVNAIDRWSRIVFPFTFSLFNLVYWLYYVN
Gamma-aminobutyric acid receptor subunit alpha-4/beta3/delta, sequence (P48169 whole entry): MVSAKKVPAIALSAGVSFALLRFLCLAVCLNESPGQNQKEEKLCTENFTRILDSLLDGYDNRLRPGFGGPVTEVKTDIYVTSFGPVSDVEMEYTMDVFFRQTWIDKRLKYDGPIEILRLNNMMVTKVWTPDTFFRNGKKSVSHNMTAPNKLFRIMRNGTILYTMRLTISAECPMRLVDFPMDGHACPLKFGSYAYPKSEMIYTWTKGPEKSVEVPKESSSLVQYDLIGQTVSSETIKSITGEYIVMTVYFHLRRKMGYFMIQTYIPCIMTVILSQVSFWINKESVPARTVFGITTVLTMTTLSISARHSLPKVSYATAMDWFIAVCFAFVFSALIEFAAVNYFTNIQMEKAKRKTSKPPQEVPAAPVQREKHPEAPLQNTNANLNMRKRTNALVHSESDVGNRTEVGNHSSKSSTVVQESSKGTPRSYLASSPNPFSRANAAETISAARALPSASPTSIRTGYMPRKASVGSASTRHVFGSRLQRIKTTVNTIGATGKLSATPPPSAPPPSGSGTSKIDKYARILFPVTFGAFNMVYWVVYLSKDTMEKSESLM
Gamma-aminobutyric acid receptor subunit alpha-4/beta3/delta, sequence (O14764 whole entry): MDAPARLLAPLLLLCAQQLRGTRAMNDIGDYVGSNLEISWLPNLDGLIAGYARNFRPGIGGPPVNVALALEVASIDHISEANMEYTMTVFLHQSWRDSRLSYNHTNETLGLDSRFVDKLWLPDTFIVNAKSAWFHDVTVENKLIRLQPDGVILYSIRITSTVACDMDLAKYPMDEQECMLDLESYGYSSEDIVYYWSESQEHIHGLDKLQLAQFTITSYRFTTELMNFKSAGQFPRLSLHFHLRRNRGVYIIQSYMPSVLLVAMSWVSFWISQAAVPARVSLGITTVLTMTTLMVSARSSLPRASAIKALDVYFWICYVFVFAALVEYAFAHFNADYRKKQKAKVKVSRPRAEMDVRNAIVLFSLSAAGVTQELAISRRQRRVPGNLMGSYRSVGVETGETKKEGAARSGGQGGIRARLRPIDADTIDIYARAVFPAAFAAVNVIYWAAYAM
Details: not given
Turning to `C[C@@]1(O)CC[C@H]2[C@H](CC[C@@H]3[C@@H]2CC[C@]2(C)[C@@H](C(=O)Cn4cnn(-c5ccc(F)cc5)c4=O)CC[C@@H]32)C1`, the EC50 was determined as 170 nM.
As for `C[C@@]1(O)CC[C@H]2[C@H](CC[C@@H]3[C@@H]2CC[C@]2(C)[C@@H](C(=O)Cn4cnn(-c5ccc(F)cc5F)c4=O)CC[C@@H]32)C1`, the EC50 amounted to 89 nM.
Regarding `C[C@@]1(O)CC[C@H]2[C@H](CC[C@@H]3[C@@H]2CC[C@]2(C)[C@@H](C(=O)Cn4cnn(C5CCCCC5)c4=O)CC[C@@H]32)C1`, the EC50 was found to be 237 nM.
Take `C[C@@]1(O)CC[C@H]2[C@H](CC[C@@H]3[C@@H]2CC[C@]2(C)[C@@H](C(=O)Cn4cnn(-c5cccc(F)n5)c4=O)CC[C@@H]32)C1`: the EC50 stood at 360 nM.
Consider `C[C@@]1(O)CC[C@H]2[C@H](CC[C@@H]3[C@@H]2CC[C@]2(C)[C@@H](C(=O)Cn4cnn(C5CCCC5)c4=O)CC[C@@H]32)C1`, for which the EC50 is 203 nM.
For the molecule `C[C@@]1(O)CC[C@H]2[C@H](CC[C@@H]3[C@@H]2CC[C@]2(C)[C@@H](C(=O)Cn4cnn(-c5cc(F)cc(F)c5)c4=O)CC[C@@H]32)C1`, the EC50 is 35 nM.
As for `CC(C)(C)n1ncn(CC(=O)[C@H]2CC[C@H]3[C@@H]4CC[C@@H]5C[C@](C)(O)CC[C@@H]5[C@H]4CC[C@]23C)c1=O`, the EC50 came out at 268 nM.
Still for that read-out and setting: then `C[C@@]1(O)CC[C@H]2[C@H](CC[C@@H]3[C@@H]2CC[C@]2(C)[C@@H](C(=O)Cn4cnn(-c5cc(F)ccn5)c4=O)CC[C@@H]32)C1`, with 68 nM; and `Cn1ncn(CC(=O)[C@H]2CC[C@H]3[C@@H]4CC[C@@H]5C[C@](C)(O)CC[C@@H]5[C@H]4CC[C@]23C)c1=O`, with 305 nM.
For `C[C@@]1(O)CC[C@H]2[C@H](CC[C@@H]3[C@@H]2CC[C@]2(C)[C@@H](C(=O)Cn4cnn(-c5cccc(F)c5F)c4=O)CC[C@@H]32)C1`, the EC50 worked out at 42 nM.

A further assay addresses Gamma-aminobutyric acid receptor subunit alpha-4/beta3/delta (Homo sapiens) (UniProt P28472+P48169+O14764). Put plainly: Positive allosteric modulation of extrasynaptic alpha4beta3delta GABA-A receptor (unknown origin) transfected in CHO cells assessed as potentiation of GABA-induced peak current amplitude by measuring maximal efficacy at 0.01 to 10 uM at -80 mV holding potential preincubated for 30 secs followed by GABA stimulation for 2 secs by manual patch assay relative to control. It counts as cell-based. The note with it: filed as positive allosteric modulator, dose 0.01-10 µM, time 32.0 sec.
Turning to `C[C@@]1(O)CC[C@H]2[C@H](CC[C@@H]3[C@@H]2CC[C@]2(C)[C@@H](C(=O)Cn4cnn(-c5ccc(F)cc5)c4=O)CC[C@@H]32)C1`, the Emax stood at 410%.
`C[C@@]1(O)CC[C@H]2[C@H](CC[C@@H]3[C@@H]2CC[C@]2(C)[C@@H](C(=O)Cn4cnn(-c5ccc(F)cc5F)c4=O)CC[C@@H]32)C1`: the Emax is 542%.
Still for that read-out and setting: the result for `C[C@@]1(O)CC[C@H]2[C@H](CC[C@@H]3[C@@H]2CC[C@]2(C)[C@@H](C(=O)Cn4cnn(C5CCCCC5)c4=O)CC[C@@H]32)C1` reads 685%; that for `C[C@@]1(O)CC[C@H]2[C@H](CC[C@@H]3[C@@H]2CC[C@]2(C)[C@@H](C(=O)Cn4cnn(-c5cccc(F)n5)c4=O)CC[C@@H]32)C1`, 966%.
Same read-out and setting: then `C[C@@]1(O)CC[C@H]2[C@H](CC[C@@H]3[C@@H]2CC[C@]2(C)[C@@H](C(=O)Cn4cnn(C5CCCC5)c4=O)CC[C@@H]32)C1`, with 830%; and `C[C@@]1(O)CC[C@H]2[C@H](CC[C@@H]3[C@@H]2CC[C@]2(C)[C@@H](C(=O)Cn4cnn(-c5cc(F)cc(F)c5)c4=O)CC[C@@H]32)C1`, with 441%; and `CC(C)(C)n1ncn(CC(=O)[C@H]2CC[C@H]3[C@@H]4CC[C@@H]5C[C@](C)(O)CC[C@@H]5[C@H]4CC[C@]23C)c1=O`, with 749%.
Consider `C[C@@]1(O)CC[C@H]2[C@H](CC[C@@H]3[C@@H]2CC[C@]2(C)[C@@H](C(=O)Cn4cnn(-c5cc(F)ccn5)c4=O)CC[C@@H]32)C1`, for which the Emax came to 720%.
Turning to `Cn1ncn(CC(=O)[C@H]2CC[C@H]3[C@@H]4CC[C@@H]5C[C@](C)(O)CC[C@@H]5[C@H]4CC[C@]23C)c1=O`, the Emax stood at 497%.
As to `C[C@@]1(O)CC[C@H]2[C@H](CC[C@@H]3[C@@H]2CC[C@]2(C)[C@@H](C(=O)Cn4cnn(-c5cccc(F)c5F)c4=O)CC[C@@H]32)C1`, the maximal effect (Emax) was 526%.

In another assay the target is T1, GABA-A receptor; alpha-1/beta-2/gamma-2 (Homo sapiens, UniProt P14867+P18507+P47870).
T1 sequence (P14867 whole entry): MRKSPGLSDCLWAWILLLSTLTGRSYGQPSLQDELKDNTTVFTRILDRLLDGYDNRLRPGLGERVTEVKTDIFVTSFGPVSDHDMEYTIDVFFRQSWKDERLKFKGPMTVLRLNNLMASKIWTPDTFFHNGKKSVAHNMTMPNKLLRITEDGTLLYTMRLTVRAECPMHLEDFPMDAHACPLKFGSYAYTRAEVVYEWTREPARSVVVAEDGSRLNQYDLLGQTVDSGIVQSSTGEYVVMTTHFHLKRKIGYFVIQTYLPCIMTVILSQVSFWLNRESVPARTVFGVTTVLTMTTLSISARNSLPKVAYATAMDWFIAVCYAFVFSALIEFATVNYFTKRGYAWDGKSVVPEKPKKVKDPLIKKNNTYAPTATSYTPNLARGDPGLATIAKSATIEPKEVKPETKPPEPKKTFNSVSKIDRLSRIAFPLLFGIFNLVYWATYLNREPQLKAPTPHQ
T1 sequence (P47870 whole entry): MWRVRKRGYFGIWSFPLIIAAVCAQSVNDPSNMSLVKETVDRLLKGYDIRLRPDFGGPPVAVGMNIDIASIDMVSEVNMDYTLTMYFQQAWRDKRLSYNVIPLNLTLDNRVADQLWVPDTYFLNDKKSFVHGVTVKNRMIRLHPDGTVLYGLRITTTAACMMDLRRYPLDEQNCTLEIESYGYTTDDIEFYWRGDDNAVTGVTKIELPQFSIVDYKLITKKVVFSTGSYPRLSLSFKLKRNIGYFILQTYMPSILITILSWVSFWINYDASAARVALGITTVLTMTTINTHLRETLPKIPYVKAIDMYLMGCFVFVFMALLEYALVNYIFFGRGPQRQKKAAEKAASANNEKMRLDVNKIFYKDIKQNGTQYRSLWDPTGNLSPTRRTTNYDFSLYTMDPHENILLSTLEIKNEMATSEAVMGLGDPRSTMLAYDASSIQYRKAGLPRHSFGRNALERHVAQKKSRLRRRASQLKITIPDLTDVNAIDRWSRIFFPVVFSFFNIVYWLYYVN
T1 sequence (P18507 whole entry): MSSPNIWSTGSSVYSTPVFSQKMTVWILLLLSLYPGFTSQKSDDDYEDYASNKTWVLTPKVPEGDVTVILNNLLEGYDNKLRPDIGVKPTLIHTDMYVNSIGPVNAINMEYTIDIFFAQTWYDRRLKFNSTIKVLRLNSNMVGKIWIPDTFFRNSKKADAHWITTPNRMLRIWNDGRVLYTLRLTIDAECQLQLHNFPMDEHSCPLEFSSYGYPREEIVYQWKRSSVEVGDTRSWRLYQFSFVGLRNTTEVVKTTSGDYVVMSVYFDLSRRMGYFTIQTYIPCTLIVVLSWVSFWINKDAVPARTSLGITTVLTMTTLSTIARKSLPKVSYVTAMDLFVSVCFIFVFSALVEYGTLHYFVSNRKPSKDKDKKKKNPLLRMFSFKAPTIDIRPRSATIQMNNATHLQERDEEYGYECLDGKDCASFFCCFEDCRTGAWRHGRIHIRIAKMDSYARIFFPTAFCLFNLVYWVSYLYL
Kind of assay: Positive allosteric modulation of synaptic alpha1beta2gamma2 GABA-A receptor (unknown origin) transfected in LTK cells assessed as potentiation of GABA-induced peak current amplitude at -80 mV holding potential preincubated for 30 secs followed by GABA stimulation for 2 secs by Q-patch assay. In kind it is cell-based.
Details: not given
On to `C[C@@]1(O)CC[C@H]2[C@H](CC[C@@H]3[C@@H]2CC[C@]2(C)[C@@H](C(=O)Cn4cnn(-c5ccc(F)cc5)c4=O)CC[C@@H]32)C1`, for which the EC50 was found to be 220 nM.
In the case of `C[C@@]1(O)CC[C@H]2[C@H](CC[C@@H]3[C@@H]2CC[C@]2(C)[C@@H](C(=O)Cn4cnn(-c5ccc(F)cc5F)c4=O)CC[C@@H]32)C1`, the EC50 was 784 nM.
For `C[C@@]1(O)CC[C@H]2[C@H](CC[C@@H]3[C@@H]2CC[C@]2(C)[C@@H](C(=O)Cn4cnn(C5CCCCC5)c4=O)CC[C@@H]32)C1`, the EC50 was 585 nM.
Still for that read-out and setting: the result for `C[C@@]1(O)CC[C@H]2[C@H](CC[C@@H]3[C@@H]2CC[C@]2(C)[C@@H](C(=O)Cn4cnn(-c5cccc(F)n5)c4=O)CC[C@@H]32)C1` reads 368 nM; that for `C[C@@]1(O)CC[C@H]2[C@H](CC[C@@H]3[C@@H]2CC[C@]2(C)[C@@H](C(=O)Cn4cnn(C5CCCC5)c4=O)CC[C@@H]32)C1`, 192 nM; that for `C[C@@]1(O)CC[C@H]2[C@H](CC[C@@H]3[C@@H]2CC[C@]2(C)[C@@H](C(=O)Cn4cnn(-c5cc(F)cc(F)c5)c4=O)CC[C@@H]32)C1`, 154 nM.
Take `CC(C)(C)n1ncn(CC(=O)[C@H]2CC[C@H]3[C@@H]4CC[C@@H]5C[C@](C)(O)CC[C@@H]5[C@H]4CC[C@]23C)c1=O`: the concentration giving a half-maximal response (EC50) is 310 nM.
Take `C[C@@]1(O)CC[C@H]2[C@H](CC[C@@H]3[C@@H]2CC[C@]2(C)[C@@H](C(=O)Cn4cnn(-c5cc(F)ccn5)c4=O)CC[C@@H]32)C1`: the half-maximal effective concentration (EC50) came to 340 nM.
For the molecule `Cn1ncn(CC(=O)[C@H]2CC[C@H]3[C@@H]4CC[C@@H]5C[C@](C)(O)CC[C@@H]5[C@H]4CC[C@]23C)c1=O`, the EC50 was 444 nM.
`C[C@@]1(O)CC[C@H]2[C@H](CC[C@@H]3[C@@H]2CC[C@]2(C)[C@@H](C(=O)Cn4cnn(-c5cccc(F)c5F)c4=O)CC[C@@H]32)C1`: the EC50 stood at 126 nM.

For the origin of these results see ChEMBL document CHEMBL5608182, “Synthesis and evaluation of neuroactive steroids with novel pharmacophore at C-21 let identify a compound with advantageous PK profile and higher EC50 and Emax as PAM on GABAA receptor” (Eur J Med Chem, 2024).
